Counter-ions that a name gives are not always drawn.
Assays:
mice = experiment: LD50 in mice, intraperitoneal route (acute toxicity); type: in vivo; conditions: for toxicity: general statement introducing LD50
skin of rabbits = experiment: Topical application on the skin of rabbits (tolerance); type: in vivo
Description: (§1) High dosages of said products, suspended in suitable excipients, could be applied without any evidence of toxic symptons.
(§2) Application of said products was effected on the skin of animals both after depilation and after depilation and abrasion, so as to obtain continuous skin lesions.

skin of rats = experiment: Topical application on the skin of rats (tolerance); type: in vivo
Description: as §1, §2

treated animals = experiment: Chronic toxicity, laboratory, organ and histological examinations of the treated animals; type: in vivo, rats and rabbits
Description: In particular, no modification was found on examination of the weight increase, of the differential leucocyte count, of azotemia, of the transaminases and of urinary excretion.
Similarly, no modification was detected on anatomopathologic and physiological examinations conducted at the level of the main organs of the treated animals.

[1] = test system: germ strains (E. coli, Pseudomonas, Staphylococcus, Proteus, Serrata marcescens, Salmonella, Providencia); experiment: Anti-bacterial activity, agar dilutions on Mueller-Hinton medium, all germ strains; type: cell-based; conditions: versus p-aminomethyl-benzene-sulfonamide
Protocol: (§3) Various tests were used to determine the anti-bacterial activity of the products of Examples 1 and 2 with respect to p-aminomethyl-benzene-sulfonamide. Said tests were effected according to the agar dilutions on Mueller-Hinton medium. The inoculum is prepared by means of an automatic Multipoint Inoculation apparatus, with a 24 hrs broth culture diluted to 1/10.
(§4) The test materials are suspended in a Twin solution.
(§5) The following germ strains were used: E. coli 130; E. coli 3671; E. coli K 12; E. coli 334; Pseudomonas 66/5; Pseudomonas 630412; Pseudomonas Paffoni; Staphylococcus 209 P; Staphylococcus 153; Pseudomonas vulgaris 66/24; Proteus marg. 66/68; Proteus mirab. 564; Proteus mirab. 250; Serrata marcescens 67/14; Salmonella 29582; Salmonella gr. B; Providencia 70/13.

Pseudomonas = experiment: Anti-bacterial activity, agar dilutions on Mueller-Hinton medium, Pseudomonas; type: cell-based
Protocol: as §3, §4, §5

Staphylococcus = experiment: Anti-bacterial activity, agar dilutions on Mueller-Hinton medium, Staphylococcus; type: cell-based
Protocol: as §3, §4, §5

E. coli = experiment: Anti-bacterial activity, agar dilutions on Mueller-Hinton medium, E. coli; type: cell-based
Protocol: as §3, §4, §5

[2] = test system: experimentally induced burns in male Sprague-Dawley rats; experiment: Protective action on experimentally induced burns; type: in vivo; conditions: for percent death rate of the burnt animals: after 48 hrs, versus reference animals or equivalent dosages of p-aminomethyl-benzene-sulfonamide; for protection compared with p-aminomethyl-benzene-sulfonamide: local; for protection compared with p-aminomethyl-benzene-sulfonamide / protective action against experimentally induced burns: 500 mg/kg; for protective action against experimentally induced burns: prior local administration
Protocol: The seriousness of the lesion thus induced is evaluated by means of the intravenous injection of Evans Blue, a vital dye.

[3] = test system: holes punctured through the ears of New Zealand rabbits; experiment: Action on cicatrization of holes punctured through the ears of rabbits; type: in vivo; conditions: 10% suspension applied locally around ear hole; versus reference animals or p-aminomethyl-benzene-sulfonamide
Protocol: To evaluate the healing action of the products of Examples 1 and 2 holes of equal diameter were punctured through the ears of New Zealand rabbits, after which the time required for cicatrization of said holes to occur was determined in untreated reference rabbits, in rabbits treated locally around the hole punctured through the ear with a 10% p-aminomethyl-benzene-sulfonamide suspension or with a suspension of identical concentration of the products of Examples 1 and 2.

[4] = Hygroscopicity and stability of the isolated powder; type: physicochemical; conditions: white powder
Protocol: The material is allowed to rest at a temperature of 5° C. for 24 hours, after which the resulting product is filtered off.

[5] = LD50 in mice, intraperitoneal route (acute toxicity); type: in vivo; conditions: mouse, in vivo, ip; mice, intraperitoneal route

Molecule	toxicity (mice)	LD50 (mice; mice, intraperitoneal route) [mg/kg]	tolerance and apparent toxicity after topical application (skin of rabbits; skin of rabbits, topical)	tolerance and apparent toxicity after topical application (skin of rats; skin of rats, topical)	histological examination of skin samples (treated animals; chronic topical treatment, inflammatory or degenerative modification)	inhibiting action on the growth of the germ colonies [1]	susceptibility of species (Pseudomonas)	susceptibility of species (Staphylococcus)	susceptibility of species (E. coli)	percent death rate of the burnt animals [2]	protection compared with p-aminomethyl-benzene-sulfonamide [2]	protective action against experimentally induced burns [2]	tissue regeneration and cicatrization [3]	hygroscopicity and stability [4]	LD50 [5] [mg/kg]	tolerance and apparent toxicity after topical application (skin of rabbits; rabbit, in vivo)	tolerance and apparent toxicity after topical application (skin of rats; rat, in vivo)	histological examination of skin samples (treated animals; in vivo)
p-aminomethyl-benzene-sulfonamide, zinc salt [Example 2]	very low toxicity	80	equally well tolerated and free from any apparent toxicity	equally well tolerated and free from any apparent toxicity	failed to disclose any modification of inflammatory or degenerative type	higher inhibiting action at lower concentrations than p-aminomethyl-benzene-sulfonamide	particularly susceptible	particularly susceptible	particularly susceptible	lower	superior to that exerted by p-aminomethyl-benzene-sulfonamide	exerts a protective action against experimentally induced burns, by inhibiting or decreasing the intensity and the seriousness of the local lesions	much more rapid than in the reference animals or in the animals treated with p-aminomethyl-benzene-sulfonamide	non-hygroscopic stable				
NCc1ccc(S(N)(=O)=O)cc1 [Example 1, p-aminomethyl-benzene-sulfonamide, silver salt]	very low toxicity					higher inhibiting action at lower concentrations than p-aminomethyl-benzene-sulfonamide	particularly susceptible	particularly susceptible	particularly susceptible	lower	superior to that exerted by p-aminomethyl-benzene-sulfonamide	exerts a protective action against experimentally induced burns, by inhibiting or decreasing the intensity and the seriousness of the local lesions	much more rapid than in the reference animals or in the animals treated with p-aminomethyl-benzene-sulfonamide		55	equally well tolerated and free from any apparent toxicity	equally well tolerated and free from any apparent toxicity	failed to disclose any modification of inflammatory or degenerative type

Source: patent US4156737A, “P-Aminomethyl-benzene-sulfonamide derivatives, process for their preparation and applications thereof” (priority 1977, dated 1979)
